According to ChEMBL document CHEMBL1201862, “PubChem BioAssay data set” (2004):
Activity calls are given as the source filed them. Cut-off read from the data, not from the text of the source, for most assays here: actives have a measured IC50 and inactives only a lower limit.

How the values were obtained:
[1] = target: Female germline-specific tumor suppressor gld-1 (Caenorhabditis elegans, UniProt Q17339); assay: inhibitors of GLD-1 binding to TGE RNA, dose response, biochemical, fluorescence polarization, C. elegans (AID 2802);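 note: fluorescence polarization of labeled TGE RNA bound by purified gld-1 protein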
Protein Rev = Protein Rev (Human immunodeficiency virus type 1 group M subtype B (isolate HXB2)(HIV-1), UniProt P04618); assay: inhibitors of Rev binding to RRE RNA, dose response, biochemical, fluorescence polarization, HIV-1 (AID 434976); design: species or system Human immunodeficiency virus 1
[2] = target: T1, Dual specificity protein phosphatase 3 (Homo sapiens, UniProt P51452); assay: SAR VHR1 Fluorescent Assay for In Vitro dose response studies. [Related pubchem assays (depositor defined):AID1654, AID1661, AID1878, AID1992, AID2004, AID2070, AID2085]; assay type: functional
[3] = target: T2, Dual specificity protein phosphatase 6 (Rattus norvegicus, UniProt Q64346); assay type: functional;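 note: confirmatory in vitro dose-response testing of MKP-3 inhibition; recombinant His-tagged MKP-3 made in E. coli BL21 with OMFP substrate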
T2 sequence (Q64346 whole entry): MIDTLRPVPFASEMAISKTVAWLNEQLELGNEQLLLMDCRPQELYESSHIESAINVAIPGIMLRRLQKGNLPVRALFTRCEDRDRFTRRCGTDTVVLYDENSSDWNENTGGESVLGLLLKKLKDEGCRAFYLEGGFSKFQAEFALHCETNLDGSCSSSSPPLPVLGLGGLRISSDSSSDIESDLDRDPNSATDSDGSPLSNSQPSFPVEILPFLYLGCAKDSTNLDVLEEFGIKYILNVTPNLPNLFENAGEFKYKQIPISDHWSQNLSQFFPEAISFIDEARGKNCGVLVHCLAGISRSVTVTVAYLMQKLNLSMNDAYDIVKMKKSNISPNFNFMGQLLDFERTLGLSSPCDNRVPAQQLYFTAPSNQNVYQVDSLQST

[4] = target: T3, Tyrosine-protein phosphatase non-receptor type 7 (Homo sapiens, UniProt P35236); assay: redox-dependent HePTP inhibition, mechanism study, biochemical, fluorescence (AID 2068); assay type: functional
T3 sequence (P35236 whole entry): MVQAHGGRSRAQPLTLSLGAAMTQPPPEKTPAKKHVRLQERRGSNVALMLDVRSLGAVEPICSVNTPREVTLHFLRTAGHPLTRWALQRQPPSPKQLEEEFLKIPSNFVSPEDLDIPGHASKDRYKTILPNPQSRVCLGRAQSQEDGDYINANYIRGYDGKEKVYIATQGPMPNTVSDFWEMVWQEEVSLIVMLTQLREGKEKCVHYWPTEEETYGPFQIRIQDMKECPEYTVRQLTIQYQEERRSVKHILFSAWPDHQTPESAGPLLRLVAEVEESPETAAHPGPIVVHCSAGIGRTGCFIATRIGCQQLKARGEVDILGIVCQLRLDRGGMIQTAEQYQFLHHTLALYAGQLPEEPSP

[5] = target: T1, Dual specificity protein phosphatase 3; assay: SAR VHR1 absorbance Assay for In Vitro dose response studies. [Related pubchem assays (depositor defined):AID1654, AID1661, AID1878, AID1992, AID2004]
[6] = target: T4, Kappa-type opioid receptor (Homo sapiens, UniProt P41145); assay: SAR analysis of small molecule antagonists of the kappa opioid receptor via a luminescent beta-arrestin assay - Set 3. [Related pubchem assays (depositor defined):AID1777, AID1778, AID1785, AID1786, AID1966, AID2133, AID2136, AID2285, AID2495]; assay type: functional
[7] = target: Delta-type opioid receptor (Homo sapiens, UniProt P41143); assay: SAR Analysis of Antagonists of the DOR Receptor using an Image-Based Assay - Set 3. [Related pubchem assays (depositor defined):AID1777, AID1785]; assay type: functional;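 note: U2OS cells expressing DOR1 and beta-arrestin GFP stimulated with 100 nM SNC80; imaging of GFP-tagged beta-arrestin moving into spots after receptor activation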
[8] = target: T4, Kappa-type opioid receptor; assay: SAR analysis of Antagonists of the Kappa Opioid Receptor (KOR) using an Image-Based Assay - Set 3. [Related pubchem assays (depositor defined):AID1777, AID1785]; assay type: functional
Mu-type opioid receptor = Mu-type opioid receptor (Homo sapiens, UniProt P35372); assay: SAR Analysis of Antagonists of the MOR Receptor using an Image-Based Assay - Set 3. [Related pubchem assays (depositor defined):AID1777, AID1785, AID1786, AID1966, AID2133, AID2136, AID2284, AID2285, AID2420]; assay type: functional
[9] = target: Sphingosine 1-phosphate receptor 4 (Homo sapiens, UniProt O95977); assay: S1P4 receptor agonists, human, late-stage follow-up, cell-based, fluorescence, synthesized compounds (AID 463107); assay type: functional
[10] = target: T5, Tyrosine-protein phosphatase non-receptor type 22 (Homo sapiens, UniProt Q9Y2R2); assay: LYP (PTPN22) phosphatase inhibitor potency, SAR follow-up, biochemical, pCAP fluorogenic substrate, fluorescence, set 3 (AID 449727); assay type: functional
T5 sequence (Q9Y2R2 whole entry): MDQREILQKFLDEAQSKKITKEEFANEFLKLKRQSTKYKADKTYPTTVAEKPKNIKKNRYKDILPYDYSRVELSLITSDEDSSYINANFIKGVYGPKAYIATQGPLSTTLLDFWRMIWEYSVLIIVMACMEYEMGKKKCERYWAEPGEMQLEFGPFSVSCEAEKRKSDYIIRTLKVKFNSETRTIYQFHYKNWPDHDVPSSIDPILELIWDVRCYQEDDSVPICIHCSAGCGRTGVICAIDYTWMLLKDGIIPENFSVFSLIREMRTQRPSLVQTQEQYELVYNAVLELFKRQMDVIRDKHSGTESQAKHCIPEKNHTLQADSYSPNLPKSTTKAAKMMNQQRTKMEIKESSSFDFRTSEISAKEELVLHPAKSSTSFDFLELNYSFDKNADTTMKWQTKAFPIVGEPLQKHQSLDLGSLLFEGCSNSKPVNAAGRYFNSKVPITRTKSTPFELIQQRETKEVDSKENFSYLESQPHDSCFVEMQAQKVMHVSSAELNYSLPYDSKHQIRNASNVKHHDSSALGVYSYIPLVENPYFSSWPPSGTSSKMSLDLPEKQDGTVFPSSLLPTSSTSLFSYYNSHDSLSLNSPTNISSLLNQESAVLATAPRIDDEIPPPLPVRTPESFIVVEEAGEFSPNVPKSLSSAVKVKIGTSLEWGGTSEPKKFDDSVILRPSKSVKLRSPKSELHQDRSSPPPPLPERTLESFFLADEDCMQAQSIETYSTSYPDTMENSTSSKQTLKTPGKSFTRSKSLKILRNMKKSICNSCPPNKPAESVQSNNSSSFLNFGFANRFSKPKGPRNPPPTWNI

[11] = target: Tyrosine-protein phosphatase non-receptor type 12 (Homo sapiens, UniProt Q05209); assay: SAR Selectivity Analysis of small molecule inhibitors of PEST using pCAP in a fluorescence assay. [Related pubchem assays (depositor defined):AID1779, AID1784, AID2135]; assay type: functional
[12] = target: T5, Tyrosine-protein phosphatase non-receptor type 22; assay: SAR LYP1 Fluorescent Assay using pCAP substrate for In Vitro dose response studies - Set 2. [Related pubchem assays (depositor defined):AID1779, AID1784, AID2135, AID449727]; assay type: functional
[13] = target: T5, Tyrosine-protein phosphatase non-receptor type 22; assay: PubChem AID 2135
[14] = target: T5, Tyrosine-protein phosphatase non-receptor type 22; assay: SAR LYP1 Fluorescent Assay using OMFP substrate for In Vitro dose response studies - Set 2. [Related pubchem assays (depositor defined):AID1779, AID1784, AID2140, AID449726, AID488869]; assay type: functional
[15] = target: T3, Tyrosine-protein phosphatase non-receptor type 7; assay: HePTP (PTPN7) phosphatase inhibitor potency, SAR follow-up, biochemical, set 2 (AID 449736); assay type: functional
[16] = target: T5, Tyrosine-protein phosphatase non-receptor type 22; assay: SAR LYP1 Fluorescent Assay using OMFP substrate for In Vitro dose response studies - Set 3. [Related pubchem assays (depositor defined):AID1779, AID1784, AID2140, AID2686]; assay type: functional
[17] = target: T5, Tyrosine-protein phosphatase non-receptor type 22; assay: PubChem AID 2140

T1 sequence (P51452 whole entry): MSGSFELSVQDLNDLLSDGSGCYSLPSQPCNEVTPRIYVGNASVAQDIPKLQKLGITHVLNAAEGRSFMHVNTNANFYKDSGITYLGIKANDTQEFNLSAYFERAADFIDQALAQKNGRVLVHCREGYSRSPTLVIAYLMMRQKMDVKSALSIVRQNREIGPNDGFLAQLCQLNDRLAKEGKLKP
T4 sequence (P41145 whole entry): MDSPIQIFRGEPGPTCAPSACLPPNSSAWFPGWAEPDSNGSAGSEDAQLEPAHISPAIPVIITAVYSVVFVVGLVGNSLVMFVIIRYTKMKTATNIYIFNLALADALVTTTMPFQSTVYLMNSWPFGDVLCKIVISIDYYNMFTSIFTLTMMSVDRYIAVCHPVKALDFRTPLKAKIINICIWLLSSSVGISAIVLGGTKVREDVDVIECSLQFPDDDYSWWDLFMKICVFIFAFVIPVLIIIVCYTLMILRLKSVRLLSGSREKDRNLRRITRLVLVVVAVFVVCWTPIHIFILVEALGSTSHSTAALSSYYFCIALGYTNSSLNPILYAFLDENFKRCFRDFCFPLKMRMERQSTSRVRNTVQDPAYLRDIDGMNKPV
Tyrosine-protein phosphatase non-receptor type 12, sequence (Q05209 whole entry): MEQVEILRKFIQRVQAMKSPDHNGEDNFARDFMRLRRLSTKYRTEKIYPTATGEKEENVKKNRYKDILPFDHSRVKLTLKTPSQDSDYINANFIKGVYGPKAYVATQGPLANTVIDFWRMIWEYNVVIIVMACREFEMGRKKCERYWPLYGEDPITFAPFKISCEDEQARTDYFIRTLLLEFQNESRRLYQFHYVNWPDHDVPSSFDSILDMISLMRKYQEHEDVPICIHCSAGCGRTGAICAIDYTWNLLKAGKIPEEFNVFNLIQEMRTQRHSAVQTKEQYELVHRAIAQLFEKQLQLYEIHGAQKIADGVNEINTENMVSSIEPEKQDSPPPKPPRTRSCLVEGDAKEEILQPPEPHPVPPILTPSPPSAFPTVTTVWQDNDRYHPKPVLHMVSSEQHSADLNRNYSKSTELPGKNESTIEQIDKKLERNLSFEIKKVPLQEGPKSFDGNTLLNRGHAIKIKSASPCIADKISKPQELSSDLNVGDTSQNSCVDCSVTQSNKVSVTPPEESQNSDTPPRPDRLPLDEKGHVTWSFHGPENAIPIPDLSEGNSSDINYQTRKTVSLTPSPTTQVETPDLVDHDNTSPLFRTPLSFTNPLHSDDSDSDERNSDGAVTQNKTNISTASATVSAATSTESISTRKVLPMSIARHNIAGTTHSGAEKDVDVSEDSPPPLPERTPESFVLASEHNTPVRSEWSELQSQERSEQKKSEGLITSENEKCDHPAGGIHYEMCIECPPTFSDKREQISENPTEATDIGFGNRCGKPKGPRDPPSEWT
Sphingosine 1-phosphate receptor 4, sequence (O95977 whole entry): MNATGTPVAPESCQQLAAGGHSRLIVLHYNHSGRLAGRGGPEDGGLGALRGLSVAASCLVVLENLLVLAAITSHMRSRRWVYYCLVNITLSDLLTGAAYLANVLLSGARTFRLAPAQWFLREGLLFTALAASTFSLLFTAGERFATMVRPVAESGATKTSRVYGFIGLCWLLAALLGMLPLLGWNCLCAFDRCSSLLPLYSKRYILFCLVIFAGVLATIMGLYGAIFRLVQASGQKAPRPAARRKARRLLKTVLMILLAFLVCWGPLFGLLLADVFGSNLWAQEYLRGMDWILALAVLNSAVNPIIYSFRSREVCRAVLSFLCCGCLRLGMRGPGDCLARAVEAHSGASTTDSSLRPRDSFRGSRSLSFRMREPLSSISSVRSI
Mu-type opioid receptor, sequence (P35372 whole entry): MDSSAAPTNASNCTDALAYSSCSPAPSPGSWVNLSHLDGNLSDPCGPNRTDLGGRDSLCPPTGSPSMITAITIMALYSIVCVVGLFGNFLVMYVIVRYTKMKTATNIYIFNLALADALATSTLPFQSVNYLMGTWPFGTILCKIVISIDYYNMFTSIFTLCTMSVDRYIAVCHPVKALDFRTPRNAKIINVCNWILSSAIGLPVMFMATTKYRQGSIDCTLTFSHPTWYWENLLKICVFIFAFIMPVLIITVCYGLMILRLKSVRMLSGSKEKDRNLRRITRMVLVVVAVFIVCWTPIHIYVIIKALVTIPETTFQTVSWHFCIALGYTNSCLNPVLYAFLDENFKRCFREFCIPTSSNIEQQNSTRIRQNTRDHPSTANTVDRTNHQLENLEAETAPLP
Protein Rev, sequence (P04618 whole entry): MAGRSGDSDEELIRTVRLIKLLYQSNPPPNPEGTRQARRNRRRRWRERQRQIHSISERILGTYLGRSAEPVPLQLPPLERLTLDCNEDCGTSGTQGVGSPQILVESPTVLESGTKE
Delta-type opioid receptor, sequence (P41143 whole entry): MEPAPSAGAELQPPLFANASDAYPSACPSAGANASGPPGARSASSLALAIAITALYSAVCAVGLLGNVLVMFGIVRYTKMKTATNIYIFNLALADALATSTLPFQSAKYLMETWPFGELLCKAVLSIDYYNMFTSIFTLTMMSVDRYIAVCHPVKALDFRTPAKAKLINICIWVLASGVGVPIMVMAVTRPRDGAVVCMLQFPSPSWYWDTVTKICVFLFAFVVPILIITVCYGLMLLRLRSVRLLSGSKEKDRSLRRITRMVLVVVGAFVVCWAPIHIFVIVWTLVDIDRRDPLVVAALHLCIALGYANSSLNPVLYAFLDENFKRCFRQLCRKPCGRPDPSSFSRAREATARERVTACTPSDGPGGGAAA
Female germline-specific tumor suppressor gld-1, sequence (Q17339 whole entry): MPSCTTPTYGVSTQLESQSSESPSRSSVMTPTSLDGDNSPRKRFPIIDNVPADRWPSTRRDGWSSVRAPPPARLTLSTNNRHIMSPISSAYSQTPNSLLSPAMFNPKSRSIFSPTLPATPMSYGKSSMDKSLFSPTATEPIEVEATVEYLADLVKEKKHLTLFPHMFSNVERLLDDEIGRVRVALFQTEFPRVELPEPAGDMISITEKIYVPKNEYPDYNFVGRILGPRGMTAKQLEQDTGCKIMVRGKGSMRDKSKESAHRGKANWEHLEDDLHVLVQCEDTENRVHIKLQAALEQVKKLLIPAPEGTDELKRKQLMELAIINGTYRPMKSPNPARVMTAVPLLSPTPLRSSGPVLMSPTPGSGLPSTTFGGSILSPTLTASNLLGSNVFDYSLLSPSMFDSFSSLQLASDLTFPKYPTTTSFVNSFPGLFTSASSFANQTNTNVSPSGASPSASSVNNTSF

In the case of `c1cc2c3c(cccc3c1)C(N1CCOCC1)=N2`, the IC50 [1] is reported as 8.44 µM (active) and the IC50 (Protein Rev) is reported as 29.2 µM (not active).
In the case of `Fc1ccc(OCCn2cc(C(=S)N3CCCCC3)c3ccccc32)cc1`, the IC50 [2] is reported as > 99 µM (inactive), the IC50 [3] is reported as > 99 µM (inactive) and the IC50 [4] is reported as 47.2 µM (active). For the same compound, the IC50 [5] was > 100 µM (inactive).
With `CCc1ccc(S(=O)(=O)NCc2ccc(C(=O)NCCN(Cc3ccc(Br)cc3)C(C)C)cc2)cc1` the IC50 [6] was 0.82 µM (active), the IC50 [7] was > 32 µM (inactive) and the IC50 [8] was 0.523 µM (active). For the same compound, the IC50 (Mu-type opioid receptor) was > 32 µM (inactive).
In the case of `Cc1ccc(OCCCOc2ccc(C)nc2[N+](=O)[O-])c([N+](=O)[O-])n1`, the EC50 [9] is reported as > 50 µM (inactive).
For `COC(=O)c1ccc(COc2ccc3cc(-c4ccc(F)cc4)c(=O)oc3c2)cc1`, the IC50 [10] was > 100 µM (inactive), the IC50 [11] was > 100 µM (inactive) and the IC50 [12] was > 100 µM (inactive). For the same compound, the IC50 [13] was > 100 µM (inactive), the IC50 [14] was > 100 µM (inactive) and the IC50 [15] was 40 µM (active). The IC50 [16] was > 100 µM (inactive) and the IC50 [17] was > 100 µM (inactive).
